Data as given in patent US9255295B2, “Method for evaluating the sensitizing potential of a test compound” (IMMUNOSEARCH, priority 2010, dated 2016).
Read-outs that look alike come from different tables or passages of the source.

What was measured:
EPISKIN model = assay: Sensitizing power: sensitizing potential retested at successive dilutions in the EPISKIN model
Text: “Sensitizing power” means the ability of a given compound to induce a sensitization reaction according to the concentration of said compound. Sensitizing power is dependent on the quantity of substance necessary to induce sensitization. Thus, the lower the sensitizing quantity necessary to induce a sensitizing response, the stronger the sensitizer is, and vice versa, the higher the sensitizing quantity necessary to induce a sensitizing response, the weaker the sensitizer is.
Thus, steps 1) and 2) will be done for each of the dilutions.

[1] = tested on: ARE gene family (AKR1B10, AKR1C1, AKR1C2, CYP1B1, FTH1P, FTL, G6PD, GCLM, NQO2, SLC7A11, TXNRD1, UGT1A1, UGT1A9, YWHAZ, CD36, CYP1A1, GCLC, HMOX1, NQO1, PSME2 …)

## O=CC=O [Glyoxal]
EPISKIN model; 0.1%
  sensitizing potential (conclusion): Sensitizing
EPISKIN model; 1%
  sensitizing potential (conclusion): Sensitizing
EPISKIN model; 10%
  sensitizing potential (conclusion): Sensitizing
EPISKIN model; 50%
  sensitizing potential (conclusion): Sensitizing
EPISKIN model; from successive dilutions
  sensitizing power (class): MODERATE
[1]; 0.1%
  AHR NUMBER OF GENES grade: 0 (if this expression is lower, the grade is 0)
  AKR1B10 NUMBER OF GENES grade: 0 (if this expression is lower, the grade is 0)
  AKR1C1 NUMBER OF GENES grade: 0 (if this expression is lower, the grade is 0)
  AKR1C2 NUMBER OF GENES grade: 0 (if this expression is lower, the grade is 0)
  ARE >1.3 (number of genes): 0
  CD36 NUMBER OF GENES grade: 0 (if this expression is lower, the grade is 0)
  CYP1A1 NUMBER OF GENES grade: 0 (if this expression is lower, the grade is 0)
  CYP1B1 NUMBER OF GENES grade: 0 (if this expression is lower, the grade is 0)
  FTH1P NUMBER OF GENES grade: 0 (if this expression is lower, the grade is 0)
  FTL NUMBER OF GENES grade: 0 (if this expression is lower, the grade is 0)
  GCLC NUMBER OF GENES grade: 0 (if this expression is lower, the grade is 0)
  GCLM NUMBER OF GENES grade: 0 (if this expression is lower, the grade is 0)
  HMOX1 NUMBER OF GENES grade: 0 (if this expression is lower, the grade is 0)
  NQO1 NUMBER OF GENES grade: 0 (if this expression is lower, the grade is 0)
  NQO2 NUMBER OF GENES grade: 0 (if this expression is lower, the grade is 0)
  S100A8 NUMBER OF GENES grade: 0 (if this expression is lower, the grade is 0)
  SLC7A11 NUMBER OF GENES grade: 0 (if this expression is lower, the grade is 0)
  TOTAL ARE (number of genes): 0
  TXNRD1 NUMBER OF GENES grade: 0 (if this expression is lower, the grade is 0)
  UGT1A1 NUMBER OF GENES grade: 0 (if this expression is lower, the grade is 0)
  UGT1A9 NUMBER OF GENES grade: 0 (if this expression is lower, the grade is 0)
[1]; 0.1%, compared to the control
  AHR expression: 0.9
  AKR1B10 expression: 0.6
  AKR1C1 expression: 0.8
  AKR1C2 expression: 0.8
  CD36 expression: 1.1
  CYP1A1 expression: 0.6
  CYP1B1 expression: 0.6
  FTH1P expression: 0.9
  FTL expression: 1.0
  GCLC expression: 1.0
  GCLM expression: 0.9
  HMOX1 expression: 1.0
  NQO1 expression: 1.0
  NQO2 expression: 0.8
  S100A8 expression: 0.7
  SLC7A11 expression: 1.0
  TXNRD1 expression: 1.0
  UGT1A1 expression: 0.9
  UGT1A9 expression: 0.3
[1]; 1%
  AHR NUMBER OF GENES grade: 0 (if this expression is lower, the grade is 0)
  AKR1B10 NUMBER OF GENES grade: 0 (if this expression is lower, the grade is 0)
  AKR1C1 NUMBER OF GENES grade: 0 (if this expression is lower, the grade is 0)
  AKR1C2 NUMBER OF GENES grade: 0 (if this expression is lower, the grade is 0)
  ARE >1.3 (number of genes): 1
  CD36 expression compared to control: 1.1
  CD36 grade (NUMBER OF GENES): 0 (if this expression is lower, the grade is 0)
  CYP1A1 NUMBER OF GENES grade: 0 (if this expression is lower, the grade is 0)
  CYP1B1 NUMBER OF GENES grade: 0 (if this expression is lower, the grade is 0)
  FTH1P NUMBER OF GENES grade: 0 (if this expression is lower, the grade is 0)
  FTL NUMBER OF GENES grade: 0 (if this expression is lower, the grade is 0)
  GCLC NUMBER OF GENES grade: 0 (if this expression is lower, the grade is 0)
  GCLM NUMBER OF GENES grade: 0 (if this expression is lower, the grade is 0)
  HMOX1 NUMBER OF GENES grade: 0 (if this expression is lower, the grade is 0)
  NQO1 NUMBER OF GENES grade: 0 (if this expression is lower, the grade is 0)
  NQO2 NUMBER OF GENES grade: 0 (if this expression is lower, the grade is 0)
  S100A8 expression compared to control: 0.9
  S100A8 grade (NUMBER OF GENES): 0 (if this expression is lower, the grade is 0)
  SLC7A11 NUMBER OF GENES grade: 1 (If the expression is greater than 1.3 compared to the control, a grade of 11s given)
  TOTAL ARE (number of genes): 1
  TXNRD1 NUMBER OF GENES grade: 0 (if this expression is lower, the grade is 0)
  UGT1A1 NUMBER OF GENES grade: 0 (if this expression is lower, the grade is 0)
  UGT1A9 NUMBER OF GENES grade: 0 (if this expression is lower, the grade is 0)
[1]; 1%, compared to the control
  AHR expression: 1.1
  AKR1B10 expression: 1.1
  AKR1C1 expression: 1.0
  AKR1C2 expression: 1.0
  CYP1A1 expression: 0.9
  CYP1B1 expression: 1.1
  FTH1P expression: 1.0
  FTL expression: 1.1
  GCLC expression: 1.1
  GCLM expression: 0.9
  HMOX1 expression: 0.9
  NQO1 expression: 1.1
  NQO2 expression: 1.0
  SLC7A11 expression: 1.4
  TXNRD1 expression: 0.9
  UGT1A1 expression: 1.2
  UGT1A9 expression: 0.6
[1]; 10%
  AHR NUMBER OF GENES grade: 0 (if this expression is lower, the grade is 0)
  AKR1B10 NUMBER OF GENES grade: 0 (if this expression is lower, the grade is 0)
  AKR1C1 NUMBER OF GENES grade: 0 (if this expression is lower, the grade is 0)
  AKR1C2 NUMBER OF GENES grade: 0 (if this expression is lower, the grade is 0)
  ARE >1.3 (number of genes): 3
  CD36 expression compared to control: 1.3
  CD36 grade (NUMBER OF GENES): 1 (If the expression is greater than 1.3 compared to the control, a grade of 11s given)
  CYP1A1 NUMBER OF GENES grade: 0 (if this expression is lower, the grade is 0)
  CYP1B1 NUMBER OF GENES grade: 0 (if this expression is lower, the grade is 0)
  FTH1P NUMBER OF GENES grade: 0 (if this expression is lower, the grade is 0)
  FTL NUMBER OF GENES grade: 0 (if this expression is lower, the grade is 0)
  GCLC NUMBER OF GENES grade: 0 (if this expression is lower, the grade is 0)
  GCLM NUMBER OF GENES grade: 1 (If the expression is greater than 1.3 compared to the control, a grade of 11s given)
  HMOX1 NUMBER OF GENES grade: 0 (if this expression is lower, the grade is 0)
  NQO1 NUMBER OF GENES grade: 0 (if this expression is lower, the grade is 0)
  NQO2 NUMBER OF GENES grade: 0 (if this expression is lower, the grade is 0)
  S100A8 expression compared to control: 0.9
  S100A8 grade (NUMBER OF GENES): 0 (if this expression is lower, the grade is 0)
  SLC7A11 NUMBER OF GENES grade: 1 (If the expression is greater than 1.3 compared to the control, a grade of 11s given)
  TOTAL ARE (number of genes): 3
  TXNRD1 NUMBER OF GENES grade: 1 (If the expression is greater than 1.3 compared to the control, a grade of 11s given)
  UGT1A1 NUMBER OF GENES grade: 0 (if this expression is lower, the grade is 0)
  UGT1A9 NUMBER OF GENES grade: 0 (if this expression is lower, the grade is 0)
[1]; 10%, compared to the control
  AHR expression: 1.0
  AKR1B10 expression: 0.7
  AKR1C1 expression: 1.0
  AKR1C2 expression: 1.2
  CYP1A1 expression: 0.0
  CYP1B1 expression: 0.8
  FTH1P expression: 1.1
  FTL expression: 1.1
  GCLC expression: 1.1
  GCLM expression: 1.7
  HMOX1 expression: 1.0
  NQO1 expression: 1.2
  NQO2 expression: 1.0
  SLC7A11 expression: 1.9
  TXNRD1 expression: 1.3
  UGT1A1 expression: 1.0
  UGT1A9 expression: 0.2
[1]; 50%
  AHR NUMBER OF GENES grade: 0 (if this expression is lower, the grade is 0)
  AKR1B10 NUMBER OF GENES grade: 0 (if this expression is lower, the grade is 0)
  AKR1C1 NUMBER OF GENES grade: 0 (if this expression is lower, the grade is 0)
  AKR1C2 NUMBER OF GENES grade: 0 (if this expression is lower, the grade is 0)
  ARE >1.3 (number of genes): 6
  CD36 expression compared to control: 1.1
  CD36 grade (NUMBER OF GENES): 0 (if this expression is lower, the grade is 0)
  CYP1A1 NUMBER OF GENES grade: 0 (if this expression is lower, the grade is 0)
  CYP1B1 NUMBER OF GENES grade: 1 (If the expression is greater than 1.3 compared to the control, a grade of 11s given)
  FTH1P NUMBER OF GENES grade: 0 (if this expression is lower, the grade is 0)
  FTL NUMBER OF GENES grade: 0 (if this expression is lower, the grade is 0)
  GCLC NUMBER OF GENES grade: 0 (if this expression is lower, the grade is 0)
  GCLM NUMBER OF GENES grade: 1 (If the expression is greater than 1.3 compared to the control, a grade of 11s given)
  HMOX1 NUMBER OF GENES grade: 1 (If the expression is greater than 1.3 compared to the control, a grade of 11s given)
  NQO1 NUMBER OF GENES grade: 0 (if this expression is lower, the grade is 0)
  NQO2 NUMBER OF GENES grade: 0 (if this expression is lower, the grade is 0)
  S100A8 expression compared to control: 0.9
  S100A8 grade (NUMBER OF GENES): 0 (if this expression is lower, the grade is 0)
  SLC7A11 NUMBER OF GENES grade: 0 (if this expression is lower, the grade is 0)
  TOTAL ARE (number of genes): 6
  TXNRD1 NUMBER OF GENES grade: 1 (If the expression is greater than 1.3 compared to the control, a grade of 11s given)
  UGT1A1 NUMBER OF GENES grade: 1 (If the expression is greater than 1.3 compared to the control, a grade of 11s given)
  UGT1A9 NUMBER OF GENES grade: 1 (If the expression is greater than 1.3 compared to the control, a grade of 11s given)
[1]; 50%, compared to the control
  AHR expression: 0.9
  AKR1B10 expression: 0.8
  AKR1C1 expression: 0.8
  AKR1C2 expression: 0.9
  CYP1A1 expression: 1.1
  CYP1B1 expression: 3.3
  FTH1P expression: 0.9
  FTL expression: 0.9
  GCLC expression: 0.9
  GCLM expression: 1.5
  HMOX1 expression: 1.4
  NQO1 expression: 0.9
  NQO2 expression: 0.9
  SLC7A11 expression: 1.0
  TXNRD1 expression: 1.4
  UGT1A1 expression: 1.4
  UGT1A9 expression: 1.3
